Earlier results as cited in patent US20220333169A1, “Polygenic Score for Cardiac Heart Failure” (Henry Ford Health System, priority 2019, published 2022).

System: heart failure patients
Details: one randomized clinical trial

For `COc1ccccc1OCCNCC(O)COc1cccc2[nH]c3ccccc3c12` (stereo not shown) [carvedilol], the “95% confidence interval for change in left ventricular ejection fraction (LVEF)” value is listed as −11.1 to +32.9.
